Data from patent US20250340572A1, “COMPOSITIONS USEFUL FOR MODULATING SPLICING” (Skyhawk Therapeutics, Inc., priority 2022, published 2025).

Experiments:
[1] = system: ATXN3 transcripts containing exon 4 (E4E5); experiment: ATXN3 quantitative splicing assay (qPCR, E4E5 primers/probe); format: cell-based; details: Homo sapiens; SK-N-MC cells, 24 h treatment, qPCR of exon 4 containing transcripts
Experimental: Human neuroblastoma SK-N-MC cells were plated in 384-well plates at 20,000 cells/well. Twenty-four hours after plating, cells were treated with compounds for 24 h at appropriate concentrations ranging from 30 μM to 0.6 nM (0.300 DMSO). Treated cells were lysed in 15 μL of lysis buffer, and cDNA was synthesized using the Fast Advanced Cells-to-Ct kit. Two μL of each cDNA was used in qPCR reactions to confirm the exon 4 skipped transcripts of ATXN3. A second set of primers/probe E4E5 was used to detect the transcripts containing exon 4. The third set of primers/probe E8E9 was used to detect total gene level of ATXN3. The qPCR reactions were prepared in 384-well plates in 10 μL volume, using TaqMan™ Fast Advanced Master Mix with primers and probes shown in the table below. Reactions were run in a Quant Studio 6 qPCR instrument with default settings.
The primers and probes are listed below in Table 5.

[2] = system: total ATXN3 protein; experiment: ATXN3 total protein assay (MSD); format: cell-based; details: Homo sapiens, SK-N-MC cells, 48 h incubation
Experimental: Human neuroblastoma SK-N-MC cells were seeded at 10,000 cells/well in 384 well plates one day prior to compound treatment. The concentrations of compounds were tested at appropriate doses ranging from 30 μM to 0.6 nM. After incubation for 48 hours, the cells were lysed with 25 μL of lysis buffer containing protease inhibitors, and total ATXN3 protein levels were assessed by Mesoscale Discovery (MSD) assay developed with one pair of anti-ATXN3 antibodies. The capture and detect antibodies were raised in mouse and rabbit respectively. Anti-rabbit MSD-ST antibody was used for secondary antibody.
ATXN3 recombinant protein was used for standards. The readouts were captured with 35 μL of MSD read buffer and multi-array 384-well high binding plates.

| IC50 [1] [nM] | IC50 [2] [nM] | Compound |
| --- | --- | --- |
| 501 to 5000 | 5000 to 10000 | CC#Cc1c(C[C@@H](N)C(F)F)sc2c(NCc3cccs3)snc12 [Compound 37, 7-[(R)-2-amino-3,3-difluoropropyl]-8-(1-propynyl)-4-thenylamino-3,6-dithia-2-azabicyclo[3.3.0]octa-1,4,7-triene] |
| 501 to 5000 | 501 to 5000 | CC#Cc1c(C(F)(F)[C@H](C)N)sc2c(NCc3cccs3)snc12 [Compound 28, 7-[(S)-2-amino-1,1-difluoropropyl]-8-(1-propynyl)-4-thenylamino-3,6-dithia-2-azabicyclo[3.3.0]octa-1,4,7-triene] |
| 101 to 500 | 101 to 500 | CC#Cc1c(C[C@@H](N)[C@H](C)F)sc2c(NCc3cccs3)snc12 [Compound 23, 7-[(2R,3S)-2-amino-3-fluorobutyl]-8-(1-propynyl)-4-thenylamino-3,6-dithia-2-azabicyclo[3.3.0]octa-1,4,7-triene] |
| 101 to 500 | 101 to 500 | CC#Cc1c(C[C@@H](N)CC2CC2)sc2c(NCc3ccco3)snc12 [Compound 30, 7-[(S)-2-amino-3-cyclopropylpropyl]-4-(furfurylamino)-8-(1-propynyl)-3,6-dithia-2-azabicyclo[3.3.0]octa-1,4,7-triene] |
| 501 to 5000 | 501 to 5000 | CC#Cc1c(C[C@@H](N)COC)sc2c(NCc3cccs3)snc12 [Compound 26, 7-[(R)-2-amino-3-methoxypropyl]-8-(1-propynyl)-4-thenylamino-3,6-dithia-2-azabicyclo[3.3.0]octa-1,4,7-triene] |
| 101 to 500 | 501 to 5000 | CC#Cc1c(C[C@@H](N)COC)sc2c(NCc3ccco3)snc12 [Compound 25, 7-[(R)-2-amino-3-methoxypropyl]-4-(furfurylamino)-8-(1-propynyl)-3,6-dithia-2-azabicyclo[3.3.0]octa-1,4,7-triene] |
| 0.01 to 100 | 0.01 to 100 | CC#Cc1c(C[C@@H](N)[C@H](C)F)sc2c(NCc3ccco3)snc12 [Compound 22, 7-[(2R,3S)-2-amino-3-fluorobutyl]-4-(furfurylamino)-8-(1-propynyl)-3,6-dithia-2-azabicyclo[3.3.0]octa-1,4,7-triene] |
| 501 to 5000 | 501 to 5000 | CC#Cc1c(C[C@@H](N)CC2CC2)sc2c(NCc3cccs3)snc12 [Compound 29, 7-[(S)-2-amino-3-cyclopropylpropyl]-8-(1-propynyl)-4-thenylamino-3,6-dithia-2-azabicyclo[3.3.0]octa-1,4,7-triene] |
| 0.01 to 100 | 101 to 500 | CC#Cc1c(C[C@@H](N)CO)sc2c(NCc3cccs3)snc12 [Compound 8, (R)-2-amino-3-{8-(1-propynyl)-4-thenylamino-3,6-dithia-2-azabicyclo[3.3.0]octa-1,4,7-trien-7-yl}-1-propanol] |
| 501 to 5000 | 501 to 5000 | CC#Cc1c(C[C@@H](N)C(F)F)sc2c(NCc3ccco3)snc12 [Compound 36, 7-[(R)-2-amino-3,3-difluoropropyl]-4-(furfurylamino)-8-(1-propynyl)-3,6-dithia-2-azabicyclo[3.3.0]octa-1,4,7-triene] |
| 10000 to 40000 | 5000 to 10000 | CC#Cc1c(C[C@@H](N)COC)sc2c(NCc3ccccc3)snc12 [Compound 24, 7-[(R)-2-amino-3-methoxypropyl]-4-benzylamino-8-(1-propynyl)-3,6-dithia-2-azabicyclo[3.3.0]octa-1,4,7-triene] |
| 101 to 500 | 101 to 500 | CCC#Cc1c(C[C@@H](N)[C@H](C)F)sc2c(NCc3cccs3)snc12 [Compound 20, 7-[(2R,3S)-2-amino-3-fluorobutyl]-8-(1-butynyl)-4-thenylamino-3,6-dithia-2-azabicyclo[3.3.0]octa-1,4,7-triene] |
| 501 to 5000 | 501 to 5000 | CC#Cc1c(C[C@@H](N)[C@H](C)F)sc2c(NCc3ccccc3)snc12 [Compound 21, 7-[(2R,3S)-2-amino-3-fluorobutyl]-4-benzylamino-8-(1-propynyl)-3,6-dithia-2-azabicyclo[3.3.0]octa-1,4,7-triene] |
| 0.01 to 100 | 0.01 to 100 | CC#Cc1c(C[C@@H](N)CO)sc2c(NCc3ccco3)snc12 [Compound 9, (R)-2-amino-3-{4-(furfurylamino)-8-(1-propynyl)-3,6-dithia-2-azabicyclo[3.3.0]octa-1,4,7-trien-7-yl}-1-propanol] |

The next lines start with the compound.

| Compound | IC50 [1] [nM] | IC50 [2] [nM] |
| --- | --- | --- |
| CC(C)C#Cc1c(C[C@H](C)N)sc2c(NCc3cccs3)snc12 [Compound 4, 7-[(S)-2-aminopropyl]-8-(3-methyl-1-butynyl)-4-thenylamino-3,6-dithia-2-azabicyclo[3.3.0]octa-1,4,7-triene] | 5000 to 10000 | 5000 to 10000 |
| C[C@H](N)Cc1sc2c(NCc3cccs3)snc2c1C#CCF [Compound 17, 7-[(S)-2-aminopropyl]-8-(3-fluoro-1-propynyl)-4-thenylamino-3,6-dithia-2-azabicyclo[3.3.0]octa-1,4,7-triene] | 101 to 500 | 501 to 5000 |
| C[C@H](N)Cc1sc2c(NCc3ccco3)snc2c1C#CC1CC1 [Compound 7, 7-[(S)-2-aminopropyl]-8-(2-cyclopropylethynyl)-4-(furfurylamino)-3,6-dithia-2-azabicyclo[3.3.0]octa-1,4,7-triene] | 101 to 500 | 501 to 5000 |
| C[C@H](N)Cc1sc2c(NCc3cccs3)snc2c1C#CC1CC1 [Compound 6, 7-[(S)-2-aminopropyl]-8-(2-cyclopropylethynyl)-4-thenylamino-3,6-dithia-2-azabicyclo[3.3.0]octa-1,4,7-triene] | 101 to 500 | 501 to 5000 |
| COCC#Cc1c(C[C@H](C)N)sc2c(NCc3cccs3)snc12 [Compound 15, 7-[(S)-2-aminopropyl]-8-(3-methoxy-1-propynyl)-4-thenylamino-3,6-dithia-2-azabicyclo[3.3.0]octa-1,4,7-triene] | 10000 to 40000 | 10000 to 40000 |
| CCC#Cc1c(C[C@H](C)N)sc2c(NCc3cccs3)snc12 [Compound 16, 7-[(S)-2-aminopropyl]-8-(1-butynyl)-4-thenylamino-3,6-dithia-2-azabicyclo[3.3.0]octa-1,4,7-triene] | 501 to 5000 | 501 to 5000 |
| CC#Cc1c(C[C@H](C)N)sc2c(NCc3ccco3)snc12 [Compound 10, 7-[(S)-2-aminopropyl]-4-(furfurylamino)-8-(1-propynyl)-3,6-dithia-2-azabicyclo[3.3.0]octa-1,4,7-triene] | 101 to 500 | 101 to 500 |
| COCC#Cc1c(C[C@H](C)N)sc2c(NCc3ccco3)snc12 [Compound 11, 7-[(S)-2-aminopropyl]-4-(furfurylamino)-8-(3-methoxy-1-propynyl)-3,6-dithia-2-azabicyclo[3.3.0]octa-1,4,7-triene] | 501 to 5000 | 501 to 5000 |
| C[C@H](N)Cc1sc2c(NCc3cccs3)snc2c1C#Cc1ccccc1 [Compound 2, 7-[(S)-2-aminopropyl]-8-(2-phenylethynyl)-4-thenylamino-3,6-dithia-2-azabicyclo[3.3.0]octa-1,4,7-triene] | 5000 to 10000 | 501 to 5000 |
| CC(C)C#Cc1c(C[C@H](C)N)sc2c(NCc3ccco3)snc12 [Compound 5, 7-[(S)-2-aminopropyl]-4-(furfurylamino)-8-(3-methyl-1-butynyl)-3,6-dithia-2-azabicyclo[3.3.0]octa-1,4,7-triene] | 501 to 5000 | 501 to 5000 |
| C[C@H](N)Cc1sc2c(NCc3cccs3)snc2c1C#CCO [Compound 27, 3-{7-[(S)-2-aminopropyl]-4-thenylamino-3,6-dithia-2-azabicyclo[3.3.0]octa-1,4,7-trien-8-yl}-2-propyn-1-ol] | 501 to 5000 | 501 to 5000 |
| CC#Cc1c(C[C@H](C)N)sc2c(NCc3cccs3)snc12 [Compound 1, 7-[(S)-2-aminopropyl]-8-(1-propynyl)-4-thenylamino-3,6-dithia-2-azabicyclo[3.3.0]octa-1,4,7-triene] | 101 to 500 | 101 to 500 |
